Laboratory results: patent EP0423221B1, “IMMUNOSUPPRESSIVE AGENTS” (THE UNIVERSITY OF SHEFFIELD, priority 1988, dated 1990)
pEC50: −log10 of the molar value. One block for each compound: values may come before it.

Legend:
[1] = tested on: human mixed lymphocyte reaction; assay: human mixed lymphocyte reaction (inhibition of 3H-thymidine incorporation); format: cell-based; conditions: for inhibition at 25 µM: Concentration of Solution 25 µM; for pEC50: concentration which brings about 50% inhibition of ^3H-thymidine incorporation, read-out: Immunosuppressive activity ED50; for immunosuppressive activity compared with azathioprine: statement in words; for inhibition at 10 µM: Concentration of Solution 10 µM
Source text: Fifteen of these compounds were screened for immunosuppressive activity by means of the human mixed lymphocyte reaction, which is well known and need not be further described here, the results of which are shown in Table 1.

SMILES: Cn1cnc([N+](=O)[O-])c1Sc1nc2ccccc2s1 [Compound 9]
- inhibition at 25 µM ([1]; Homo sapiens, Lymphocyte): 27%

SMILES: Cn1cnc([N+](=O)[O-])c1Sc1ccccc1C(=O)O [Compound 13]
- inhibition at 25 µM ([1]; Homo sapiens, Lymphocyte): 34%

SMILES: Cn1cnc([N+](=O)[O-])c1Sc1nc2cc(F)c(Cl)cc2[nH]1 [Compound 4]
- inhibition at 50 µM ([1]; Homo sapiens, Lymphocyte, Concentration of Solution 50 µM): 59%

SMILES: Cn1cnc([N+](=O)[O-])c1Sc1nccc(O)n1 [Compound 19]
- inhibition at 25 µM ([1]; Homo sapiens, Lymphocyte): 29%

- pEC50 ([1]; Homo sapiens, Lymphocyte): 4.62
SMILES: Cn1cnc([N+](=O)[O-])c1Sc1ncnc2[nH]c(O)nc12 [Compound 11]
- immunosuppressive activity compared with azathioprine [1]: less immunosuppressive than azathioprine
- toxicity to lymphocytes compared with azathioprine (lymphocytes): much less toxic to the lymphocytes

SMILES: Cc1ccc2[nH]c(Sc3c([N+](=O)[O-])ncn3C)nc2c1 [Compound 2]
- inhibition at 25 µM ([1]; Homo sapiens, Lymphocyte): 86%

- pEC50 ([1]; Homo sapiens, Lymphocyte): 5.55
SMILES: Cn1cnc([N+](=O)[O-])c1Sc1ncc[nH]1 [Compound 21]
- inhibition at 10 µM ([1]; Homo sapiens, Lymphocyte): 89%
- immunosuppressive activity compared with azathioprine [1]: substantially more immunosuppressive than azathioprine
- toxicity to lymphocytes compared with azathioprine (lymphocytes): considerably less toxic to lymphocytes

SMILES: Cn1cnc([N+](=O)[O-])c1Sc1ncccn1 [Compound 16]
- inhibition at 25 µM ([1]; Homo sapiens, Lymphocyte): 47%

SMILES: Cn1cnc([N+](=O)[O-])c1Sc1nc2ccccc2o1 [Compound 8]
- inhibition at 25 µM ([1]; Homo sapiens, Lymphocyte): 87%

SMILES: Cn1cnc([N+](=O)[O-])c1Sc1nc2ccccc2[nH]1 [Compound 1]
- inhibition at 36 µM ([1]; Homo sapiens, Lymphocyte, Concentration of Solution 36 µM): 98%

SMILES: Cn1cnc([N+](=O)[O-])c1Sc1ccccn1 [Compound 15]
- inhibition at 25 µM ([1]; Homo sapiens, Lymphocyte): 76%

SMILES: CCn1c(C)nc([N+](=O)[O-])c1Sc1nc(C)cc(C)n1 [Compound 18]
- inhibition at 25 µM ([1]; Homo sapiens, Lymphocyte): 47%

SMILES: COc1ccc(OC)c2[nH]c(Sc3c([N+](=O)[O-])ncn3C)nc12 [Compound 6]
- inhibition at 25 µM ([1]; Homo sapiens, Lymphocyte): 41%

SMILES: Cn1cnc([N+](=O)[O-])c1Sc1ncnc2nc[nH]c12 [I (azathioprine), azathioprine, reference compound]
- inhibition at 25 µM ([1]; Homo sapiens, Lymphocyte): 79%
- pEC50 ([1]; Homo sapiens, Lymphocyte): 5.10
- Toxicity LD25 (lymphocytes; human): 42.5
- Therapeutic index ED50/LD25 (lymphocytes; ratio of toxicity and immunosuppressive activity): 5.38

- pEC50 ([1]; Homo sapiens, Lymphocyte): 5.50
SMILES: Cn1ccnc1Sc1c([N+](=O)[O-])ncn1C [Compound 22]
- inhibition at 10 µM ([1]; Homo sapiens, Lymphocyte): 82%
- immunosuppressive activity compared with azathioprine [1]: substantially more immunosuppressive than azathioprine
- toxicity to lymphocytes compared with azathioprine (lymphocytes): considerably less toxic to lymphocytes

SMILES: CCOC(=O)CSc1c([N+](=O)[O-])ncn1C [Compound 30]
- inhibition at 25 µM ([1]; Homo sapiens, Lymphocyte): 65%

SMILES: COc1cc2nc(Sc3c([N+](=O)[O-])ncn3C)[nH]c2cc1OC [Compound 5]
- inhibition at 25 µM ([1]; Homo sapiens, Lymphocyte): 94%
